ChEMBL document CHEMBL1151624, “Isolation of artemisinin (qinghaosu) from Artemisia annua growing in the United States” (J Nat Prod, 1984)
Converted amounts (≈) assume the structure as drawn.

How the values were obtained:
Proteus sp. = test: Antimicrobial activity against Proteus Sp.; format: functional; conditions: Proteus sp. (in: enterobacteria)
Neisseria meningitidis = test: Antimicrobial activity against Neisseria meningitidis; format: functional
Neisseria gonorrhoeae = test: Antimicrobial activity against Neisseria gonorrhoeae; format: functional
Plasmodium falciparum [1] = test: Antimalarial activity against chloroquine-sensitive Plasmodium falciparum CAMP by semiautomated micro dilution assay; format: functional, organism-based
Plasmodium falciparum [2] = test: Antimalarial activity against chloroquine-resistant Plasmodium falciparum Smith by semiautomated micro dilution assay; format: functional, organism-based
Staphylococcus aureus = test: Antimicrobial activity against Staphylococcus aureus; format: functional
Enterococcus faecalis = test: Antimicrobial activity against Streptococcus faecalis; format: functional
Klebsiella = test: Antimicrobial activity against Klebsiella; format: functional
Shigella dysenteriae = test: Antimicrobial activity against Shigella dysenteriae; format: functional
Escherichia coli = test: Antimicrobial activity against Escherichia coli; format: functional
Serratia marcescens = test: Antimicrobial activity against Serratia marcescens; format: functional

Row | Compound | MIC (Proteus sp.) [µg/mL] | MIC (Neisseria meningitidis) [µg/mL] | MIC (Neisseria gonorrhoeae) [µg/mL] | IC50 (Plasmodium falciparum [1]) [µg/mL] | IC50 (Plasmodium falciparum [2]) [µg/mL] | MIC (Staphylococcus aureus) [µg/mL] | MIC (Enterococcus faecalis) [µg/mL] | MIC (Klebsiella) [µg/mL] | MIC (Shigella dysenteriae) [µg/mL] | MIC (Escherichia coli) [µg/mL] | MIC (Serratia marcescens) [µg/mL]
1 | C[C@@H]1CC[C@H]2[C@@H](C)C(=O)O[C@@H]3O[C@@]4(C)CC[C@@H]1[C@]32OO4 [ARTEMISININ] | > 32 | > 1 | > 1 | < 0.0034 | < 0.0034 | > 32 | > 32 | > 32 | > 32 | > 32 | > 32
2 | OC(c1cc(C(F)(F)F)nc2c(C(F)(F)F)cccc12)C1CCCCN1 (stereo not drawn) [MEFLOQUINE] |  |  |  | 0.0035 (≈ 0.00925 µM) | 0.0025 (≈ 0.00661 µM) |  |  |  |  |  | 
